The text below walks through data of article PMC3820707, “Structure-Activity Relationships of Constrained Phenylethylamine Ligands for the Serotonin 5-HT2 Receptors” (PLoS ONE, 2013).

Data set [1] addresses T1, 5-HT2A (Homo sapiens, UniProt P28223). Particulars: read-out: Affinity, Ki 5-HT2A; cited from earlier work.
Data set [2] concerns the target 5-HT2A. Particulars: cited from earlier work; for Ki: Rat, read-out: Affinity, Ki 5-HT2A.
Data set [3] deals with 5-HT2C. Particulars: Rat; read-out: Affinity, Ki 5-HT2C; cited from earlier work.
In another data set the target is 5-HT2A-C. Also on record: method as in PMID 9857084. Particulars: range over 5-HT2A, 5-HT2B, 5-HT2C; read-out: Affinity in 5-HT2A-C; cited from earlier work.
The next data set has as its target 5-HT2B (Homo sapiens, UniProt P41595). Kind of data set: Competition binding with [3H]-LSD (NIMH PDSP).
The target in data set [4] is T1, 5-HT2A. Kind of data set: Competition binding with [3H]-ketanserin (NIMH PDSP).
Data set [5] concerns the target T2, 5-HT2C (Homo sapiens, UniProt P28335).
T2 sequence (P28335 33-458): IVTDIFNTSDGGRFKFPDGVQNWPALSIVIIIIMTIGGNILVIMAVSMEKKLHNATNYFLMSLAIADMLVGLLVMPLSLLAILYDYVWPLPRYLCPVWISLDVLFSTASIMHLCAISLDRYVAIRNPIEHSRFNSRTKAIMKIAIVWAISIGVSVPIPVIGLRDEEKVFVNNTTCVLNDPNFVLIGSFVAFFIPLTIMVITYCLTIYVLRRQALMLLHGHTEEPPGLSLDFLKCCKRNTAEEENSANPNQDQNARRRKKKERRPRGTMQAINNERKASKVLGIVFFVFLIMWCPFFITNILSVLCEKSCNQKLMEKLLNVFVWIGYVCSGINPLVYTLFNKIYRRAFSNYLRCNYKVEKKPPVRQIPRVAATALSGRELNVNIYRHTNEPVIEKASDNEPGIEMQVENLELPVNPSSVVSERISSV
Kind of data set: Competition binding with [3H]-mesulergine (NIMH PDSP).

Where [6] appears, read: Affinity, Ki 5-HT2B, radioligand [3H]-LSD.

Where a name gives a salt, the structure may show the parent alone. Read-outs that look alike come from different tables or passages of the source. Bounds are passed on as bounds.

T1 sequence (P28223 whole entry): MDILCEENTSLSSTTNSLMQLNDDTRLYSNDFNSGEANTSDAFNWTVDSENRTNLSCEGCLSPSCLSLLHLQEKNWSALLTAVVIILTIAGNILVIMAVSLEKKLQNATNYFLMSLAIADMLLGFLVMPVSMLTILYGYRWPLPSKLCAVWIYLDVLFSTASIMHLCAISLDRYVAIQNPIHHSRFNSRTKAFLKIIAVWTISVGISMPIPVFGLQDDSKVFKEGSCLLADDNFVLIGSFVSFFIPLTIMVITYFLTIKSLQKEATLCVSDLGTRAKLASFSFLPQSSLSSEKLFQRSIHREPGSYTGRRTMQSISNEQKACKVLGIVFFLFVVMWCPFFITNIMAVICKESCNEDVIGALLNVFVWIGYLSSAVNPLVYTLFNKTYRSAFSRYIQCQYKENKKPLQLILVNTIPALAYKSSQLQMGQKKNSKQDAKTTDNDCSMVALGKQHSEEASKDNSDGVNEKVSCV
Sequence of 5-HT2B (P41595 whole entry): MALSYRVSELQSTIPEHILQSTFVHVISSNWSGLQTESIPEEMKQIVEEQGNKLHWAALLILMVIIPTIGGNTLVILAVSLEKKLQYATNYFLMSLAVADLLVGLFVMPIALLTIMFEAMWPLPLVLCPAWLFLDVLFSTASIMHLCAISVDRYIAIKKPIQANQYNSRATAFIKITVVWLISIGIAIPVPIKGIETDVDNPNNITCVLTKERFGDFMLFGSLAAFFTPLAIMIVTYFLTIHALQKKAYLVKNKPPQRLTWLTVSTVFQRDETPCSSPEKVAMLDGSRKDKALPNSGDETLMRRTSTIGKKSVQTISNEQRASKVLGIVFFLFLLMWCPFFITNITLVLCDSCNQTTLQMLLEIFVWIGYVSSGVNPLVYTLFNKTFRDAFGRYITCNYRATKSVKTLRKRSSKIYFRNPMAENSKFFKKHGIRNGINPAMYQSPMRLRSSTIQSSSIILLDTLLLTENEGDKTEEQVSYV

The melting point is the temperature, or range, at which the solid turns liquid. Regarding `COc1cc2c(cc1Br)OCC2CN` (stereo not shown) (as salt: hydrochloride) [Compound 9, (6-Bromo-5-methoxy-2,3-dihydrobenzofuran-3-yl)methanamine], the melting point was 232 to 234 °C (dec.).
Still for that read-out and setting: then `COc1cc2c(cc1Br)OCCCC2CN` (stereo not shown) (as salt: hydrochloride) [Compound 11, (8-Bromo-7-methoxy-2,3,4,5-tetrahydrobenzo[b]oxepin-5-yl)methanamine], with 224 to 226 °C.
In the case of `COc1cc(CCN)c(OC)cc1Br` [Compound 1a, 2C-B], the Ki at 5-HT2A [1] was 0.88 nM.
With `COc1cc(CC(C)N)c(OC)cc1Br` (stereo not shown) [Compound 1b, DOB], the Ki is […] at 5-HT2A [2] and 2.82 nM at 5-HT2C [3].
In the case of `NCCc1c2c(c(Br)c3c1OCCC3)OCCC2` [Compound 3a, 2C-B-butterfly], the Ki at 5-HT2A [2] was 1.76 nM; at 5-HT2C [3] it was 1.52 nM.
Turning to `CC(N)Cc1c2c(c(Br)c3c1OCCC3)OCCC2` (stereo not shown) [Compound 3b, DOB-butterfly], the figures for the Ki on 5-HT2A [2] and at 5-HT2C [3] were 3.87 nM and 1.85 nM, respectively.
`CC(N)Cc1c2ccoc2c(Br)c2ccoc12` (stereo not shown) [Compound 4, Bromo-DragonFLY]: the Ki at 5-HT2A-C is 0.02 to 0.19 nM.
With `COc1cc(Br)c(OC)c2c1C(CN)CC2` (stereo not shown) [Compound 7], the Ki on 5-HT2A [1] was 47 nM.
Turning to `COc1cc2c(cc1Br)OCCC(N)C2` (stereo not shown) [Compound 8], the “Fold lower affinity than the unconstrained reference DOB” value in the data set with 5-HT2A [2] (5-HT2A) is 373 fold. Further, the Ki at 5-HT2A [2] is 422 nM.
Regarding `COc1cc2c(cc1Br)OCC2CN` (stereo not shown) [Compound 9, (6-Bromo-5-methoxy-2,3-dihydrobenzofuran-3-yl)methanamine], the Ki was 196 ± 28 nM at 5-HT2B (setting [6]), 1040 ± 188 nM on 5-HT2A [4] and 135 ± 31 nM on 5-HT2C [5].
With `COc1cc2c(cc1Br)OCCCC2CN` (stereo not shown) [Compound 11, (8-Bromo-7-methoxy-2,3,4,5-tetrahydrobenzo[b]oxepin-5-yl)methanamine], the Ki at 5-HT2B (Affinity for 5-HT2B, radioligand [3H]-LSD) was 1900 nM; at 5-HT2B (setting [6]) it was 1870 ± 345 nM; on 5-HT2A [4], more than 10000 nM; on 5-HT2C [5], more than 10000 nM. For the same molecule, at 5-HT2A [4] (Human, radioligand [3H]-ketanserin), the “Affinity, Ki 5-HT2A” value is “inactive”. In addition, on 5-HT2C [5] (Human, radioligand [3H]-mesulergine), the “Affinity, Ki 5-HT2C” value is “inactive”.
For the molecule “(6-Methoxychroman-4-yl)methanamine [Compound 10]”, the Ki was 70 ± 13 nM on 5-HT2B (read-out: Affinity, Ki 5-HT2B, radioligand [3H]-LSD); 847 ± 79 nM at 5-HT2A [4] (read-out: Affinity, Ki 5-HT2A, Human, radioligand [3H]-ketanserin); 124 ± 9 nM at 5-HT2C [5] (read-out: Affinity, Ki 5-HT2C, Human, radioligand [3H]-mesulergine).
